Test results as given in patent US20070161107A1, “Differentiation of human embryonic stem cells to cardiomyocytes” (priority 2003, published 2007).

Tests used:
[1] = system: human fetal ventricular cells; assay: Chronotropic response (beating rate) of cultured human fetal ventricular cells; type: cell-based
Excerpt: (§1) FIG. 4. Action potentials and chronotropic responses. […] C.
(§2) Ventricular-like action potentials predominated (28 out of 33; table 2) but atrial-like (n=2), pacemaker-like (n=1) and vascular smooth muscle like-cells (n=2) were also found. In areas in which the cells were not beating but had adopted morphologies indistinguishable from beating areas (FIG. 1F), current injection was sufficient to induce repeated action potentials and sustained synchronous rhythmic contractions. Transcripts for MLC-2v were also detected by RTPCR in non-beating, myocyte-like areas (not shown); scoring beating muscle may thus underestimate the number of cardiomyocytes present in culture. […] The effects of phenylephrine, isoprenaline and carbachol on cultured dissociated hES cardiomyocytes were tested and compared to cultured human fetal ventricular cells (FIG. 4B). […] Similar effects were reported in mES derived cardiomyocytes 21 and mouse fetal cells (22).

[2] = system: hES derived cardiomyocytes; assay: Chronotropic response (beating rate) of dissociated hES-derived cardiomyocytes; type: cell-based, human; details: cultured dissociated hES cardiomyocytes
Excerpt: as §1
Co-cultures were initiated as for END-2 cells.
as §2

| Structure (SMILES) | effect on beating rate [1] | effect on beating rate [2] |
| --- | --- | --- |
| C[N+](C)(C)CCOC(N)=O [Carbachol] | decreased the beating rate | decreased the beating rate |
| CNC[C@H](O)c1cccc(O)c1 [phenylephrine] | increase | increase |
| CC(C)NCC(O)c1ccc(O)c(O)c1 (stereo not drawn) [isoprenaline] | increase | increase |
